Reference: patent publication US9227935B2, “Piperidine/piperazine derivatives” (Janssen Pharmaceutica N.V., priority 2007, dated 2016)
pIC50: −log10 of the molar value.

Target: T1, human DGAT1 (Homo sapiens, UniProt O75907)
T1 construct: FLAG (N); made in house; host or cells: SF9 insect cells (baculovirus, pFastBac); total cell membranes used as the enzyme source
T1 sequence (O75907 1-488): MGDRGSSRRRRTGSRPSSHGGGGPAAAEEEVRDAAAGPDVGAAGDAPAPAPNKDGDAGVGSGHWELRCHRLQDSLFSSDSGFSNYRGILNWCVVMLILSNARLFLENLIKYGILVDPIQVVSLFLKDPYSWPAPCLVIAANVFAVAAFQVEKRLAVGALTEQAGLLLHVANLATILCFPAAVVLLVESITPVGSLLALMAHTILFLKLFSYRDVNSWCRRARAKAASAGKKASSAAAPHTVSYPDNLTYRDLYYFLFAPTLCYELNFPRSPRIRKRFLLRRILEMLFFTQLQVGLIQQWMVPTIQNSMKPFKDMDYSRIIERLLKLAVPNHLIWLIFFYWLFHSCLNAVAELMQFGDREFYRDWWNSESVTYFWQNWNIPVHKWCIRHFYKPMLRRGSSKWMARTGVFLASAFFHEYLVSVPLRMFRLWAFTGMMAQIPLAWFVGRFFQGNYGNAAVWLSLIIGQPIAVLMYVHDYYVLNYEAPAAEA
Assay: DGAT1 FlashPlate inhibition assay with DGAT1 membrane preparations
Type: biochemical
Details: IC50 values expressed in M; pIC50 = -logIC50; inhibition of DGAT1 activity
Text: The inhibiting activity of the present compounds on DGAT1 activity was screened in a single well procedure assay using DGAT1 comprising membrane preparations and DGAT1 substrate comprising micelles and determining formed radio-active triacylglycerol coming in close proximity of a flashplate surface by radioluminescence.
Said assay is described in full detail in WO2006/067071, the content of which is incorporated herein by reference.
By DGAT1 activity is meant the transfer of coenzyme A activated fatty acids to the 3-position of 1,2-diacylglycerols, thus forming a triglyceride molecule, by enzyme DGAT1.
human DGAT1 (NM012079.2) was cloned into the pFastBac vector, containing translation start, a FLAG-tag at the N-terminus as described in literature and a viral Kozak sequence (AAX) preceding the ATG to improve expression in insect cells. Expression was done as described in literature (Cases, S., Smith, S. J., Zheng, Y., Myers H. M., Lear, S. R., Sande, E., Novak, S., Collins, C., Welch, C. B., Lusis, A. J., Erickson, S. K. and Farese, R. V. (1998) Proc. Natl. Acad. Sci. USA 95, 13018-13023.) using SF9 cells.
72 h transfected SF9 cells were collected by centrifugation (13000 rpm-15 min-4° C.) and lysed in 2×500 ml lysis buffer (0.1M Sucrose, 50 mM KCl, 40 mM KH2PO4, 30 mM EDTA pH 7.2. Cells were homogenized by cell disruptor. After centrifugation 1380 rpm-15 min-4° C. (SN discarded), pellet was resuspended in 500 ml lysis buffer and total cell membranes collected by ultracentrifugation at 34000 rpm (100 000 g) for 60 min (4° C.). The collected membranes were resuspended in lysis buffer, divided in aliquots and stored with 10% glycerol at −80° C. until use.
Add 1 ml dioleoyl-sn-glycerol (10 mg/ml) to 10 ml of L-α-phosphatidylcholine (1 mg/ml) and 10 ml of L-α-phosphatidyl-L-serine (1 mg/ml) in a thick glass recipient. Evaporate under nitrogen and put on ice for 15 minutes. Reconstitute in 10 ml Tris/HCl (10 mM, pH 7.4) by sonication on ice. The sonification process consists of sonification cycles of 10 seconds in the sonification bath followed by 10 seconds cool down on ice and repeating this sonification cycle till a homogeneous solution is obtained (takes about 15 minutes). The thus obtained micelles are stored at −20° C. till later use and contain DAG at a final concentration of 1.61 mM.
• 50 mM Tris-HCl (pH 7.4), 150 mM MgCl2, 1 mM EDTA, 0.2% BSA. b) N-ethylmaleimide, 5M • Dissolve 5 g into a final volume of 8 ml DMSO 100% and store at −20° C. in aliquots till later use. c) Substrate mix (for 1 384 well plate=3840 μl) • 612 μl micelles stock (51 μM final) • 16.6 μl oleoylCoA 9.7 mM • 23 μl [^3H]-oleoylCoA (49 Ci/mmol, 500 μCi/ml) • 3188.4 μl Tris pH 7.4, 10 mM d) Enzyme mix (for 1 384 well plate=3520 μl) (5 μg/ml) • Add 11.73 μl of DGAT membrane stock (1500 μg/ml stock) to 3508 μl assay buffer. e) Stop mix (for 1 384 well plate=7.68 ml) (250 mM) • Add 384 μl of N-ethylmaleimide (5M) to 3.456 ml DMSO 100%, and further dilute 3.84 ml of said solution with 3.84 ml DMSO 10%. Method
DGAT activity in membrane preparations was assayed in 50 mM Tris-HCl (pH 7.4), 150 mM MgCl2, 1 mM EDTA and 0.2% BSA, containing 50 μM DAG, […] PC/PS and 8.4 μM [^3H]-oleoylCoA (at a specific activity of 30 nCi/well) in a final volume of 50 μl in 384-well format using the red shifted Basic Image FlashPlate™ (Perkin Elmer Cat. No. SMP400).
In detail, 10 μl enzyme mix and 10 μl substrate mix were added to 30 μl of assay buffer, optionally in the presence of 1 μl DMSO (blank and controls) or 1 μl of the compound to be tested. This reaction mixture was incubated for 120 minutes at 37° C. and the enzymatic reaction stopped by adding 20 μl of the stop mix. The plates were sealed and the vesicles allowed to settle overnight at room temperature. Plates were centrifuged for 5 minutes at 1500 rpm and measured in Leadseeker. […]

Q: With `CC(C)(C)OC(=O)N1CSCC1C(=O)Nc1ccc(C2CCN(C(=O)Nc3c(Cl)cccc3Cl)CC2)cc1` (stereo not drawn) [Compound 50] as the compound, how does the pIC50 read?
A: Its pIC50 is 6.53.

Q: How did the pIC50 turn out when `COC(=O)c1cccc(C(=O)Nc2ccc(N3CCN(C(=O)Cc4c(Cl)cc(CN5CCCC5)cc4Cl)CC3)cc2)c1` [Compound 145] was run?
A: Its pIC50 is 6.95.

Q: How did the pIC50 turn out when `Cc1ccc(C)n1-c1cccc(C(=O)Nc2ccc(N3CCN(C(=O)Nc4c(Cl)cccc4Cl)CC3)cc2)c1` [Compound 20] was run?
A: Its pIC50 is 7.51.

Q: `O=C(Nc1cccc(N2CCCC2)c1)c1ccc(N2CCN(C(=O)Cc3c(Cl)cccc3Cl)CC2)cc1` [Compound 131] was tested. Which pIC50 did it give?
A: The pIC50 was 7.51.

Q: `O=C(Nc1ccc(N2CCN(C(=O)Nc3ccc4c(c3)OCCO4)CC2)cc1)c1ccccc1-c1ccc(C(F)(F)F)cc1` [Compound 106] was tested. Which pIC50 did it give?
A: The pIC50 was 5.14.

Q: With `O=C(Nc1ccc(N2CCN(C(=O)Nc3c(Cl)cccc3Cl)CC2)cc1)c1ccc(N2CCOCC2)cc1` [Compound 38] as the compound, how does the pIC50 read?
A: The pIC50 was 7.96.

Q: How did the pIC50 turn out when `Cc1cc(C)c(NC(=O)N2CCN(c3ccc(NC(=O)c4ccccc4-c4ccc(C(F)(F)F)cc4)cc3)CC2)c(C)c1` [Compound 85] was run?
A: The pIC50 was 6.75.

Q: With `Cc1nc(C(=O)Nc2ccc(C3CCN(C(=O)Nc4c(Cl)cccc4Cl)CC3)cc2)c(-c2cccc(C(F)(F)F)c2)s1` [Compound 53] as the compound, how does the pIC50 read?
A: The pIC50 was 5.83.

Q: `O=C(Nc1ccc(N2CCN(C(=O)Nc3c(Cl)cccc3Cl)CC2)cc1)c1cccc(-n2ccnc2)c1` [Compound 23] was tested. Which pIC50 did it give?
A: The pIC50 was 7.48.

Q: With `Cc1cc(C)n(-c2ccc(C(=O)Nc3ccc(N4CCN(C(=O)Nc5c(Cl)cccc5Cl)CC4)cc3)cc2)n1` [Compound 27] as the compound, how does the pIC50 read?
A: Its pIC50 is 8.41.

Q: How did the pIC50 turn out when `CC(C)(C)OC(=O)N1CCCC(C(=O)Nc2ccc(C3CCN(C(=O)Nc4c(Cl)cccc4Cl)CC3)cc2)C1` (stereo not drawn) [Compound 52] was run?
A: The pIC50 was 7.76.

Q: With `O=C(Nc1ccc(N2CCN(C(=O)Nc3ccccc3Br)CC2)cc1)c1ccccc1-c1ccc(C(F)(F)F)cc1` [Compound 88] as the compound, how does the pIC50 read?
A: Its pIC50 is 5.86.

Q: `O=C(Nc1ccc(C2=CCN(C(=O)NCCCc3ccccc3)CC2)cc1)c1ccccc1-c1ccc(C(F)(F)F)cc1` [Compound 122] was tested. Which pIC50 did it give?
A: The pIC50 was 5.82.

Q: With `O=C(Nc1ccc(C2CCN(C(=O)Nc3c(Cl)cccc3Cl)CC2)cc1)C1CCCNC1` (stereo not drawn) [Compound 49] as the compound, how does the pIC50 read?
A: The pIC50 was 5.05.

Q: How did the pIC50 turn out when `CC(C)c1ccc(-c2ccccc2C(=O)Nc2ccc(C3CCN(C(=O)Nc4c(Cl)cccc4Cl)CC3)cc2)cc1` [Compound 61] was run?
A: Its pIC50 is 6.37.

Q: How did the pIC50 turn out when `Cc1ccc([N+](=O)[O-])c(NC(=O)N2CCC(c3ccc(NC(=O)c4ccccc4-c4ccc(C(F)(F)F)cc4)cc3)CC2)c1C` [Compound 116] was run?
A: Its pIC50 is 5.66.

Q: With `Cc1ccccc1-c1cccc(C(=O)Nc2ccc(C3CCN(C(=O)Nc4c(Cl)cccc4Cl)CC3)cc2)c1` [Compound 60] as the compound, how does the pIC50 read?
A: Its pIC50 is 7.76.

Q: How did the pIC50 turn out when `O=C(Nc1ccc(C2=CCN(C(=O)NCC3CCCCC3)CC2)cc1)c1ccccc1-c1ccc(C(F)(F)F)cc1` [Compound 120] was run?
A: Its pIC50 is 5.37.

Q: How did the pIC50 turn out when `O=C(Nc1ccc(N2CCN(C(=O)Nc3c(Cl)cccc3Cl)CC2)cc1)c1ccccc1-n1ccnc1` [Compound 22] was run?
A: Its pIC50 is 5.86.

Q: With `Cc1cc(C)c(NC(=O)N2CCC(c3ccc(NC(=O)c4ccccc4-c4ccc(C(F)(F)F)cc4)cc3)CC2)c(Br)c1` [Compound 118] as the compound, how does the pIC50 read?
A: The pIC50 was 6.20.

Q: With `Nc1ccccc1C(=O)Nc1ccc(C2CCN(C(=O)Nc3c(Cl)cccc3Cl)CC2)cc1` [Compound 10] as the compound, how does the pIC50 read?
A: The pIC50 was 6.49.

Q: With `Cc1ccc(C)n1-c1ccc(C(=O)Nc2ccc(N3CCN(C(=O)Nc4c(Cl)cccc4Cl)CC3)cc2)cc1` [Compound 19] as the compound, how does the pIC50 read?
A: Its pIC50 is 6.84.

Q: How did the pIC50 turn out when `O=C(Nc1ccc(N2CCN(C(=O)Nc3c(Cl)cccc3Cl)CC2)cc1)c1ccc(-n2ccnc2)cc1` [Compound 24] was run?
A: Its pIC50 is 6.46.

Q: `O=C(Nc1ccc(N2CCN(C(=O)Nc3c(Cl)cccc3Cl)CC2)cc1)c1cccc(-c2cnco2)c1` [Compound 16] was tested. Which pIC50 did it give?
A: Its pIC50 is 7.92.

Q: `COc1ccc(CNC(=O)N2CC=C(c3ccc(NC(=O)c4ccccc4-c4ccc(C(F)(F)F)cc4)cc3)CC2)cc1` [Compound 123] was tested. Which pIC50 did it give?
A: Its pIC50 is 5.38.

Q: With `O=C(O)Cc1cccc(C(=O)Nc2ccc(N3CCN(C(=O)Nc4c(Cl)cc(CN5CCCCC5)cc4Cl)CC3)cc2)c1` [Compound 143] as the compound, how does the pIC50 read?
A: Its pIC50 is 5.48.

Q: How did the pIC50 turn out when `CCCNC(=O)N1CC=C(c2ccc(NC(=O)c3ccccc3-c3ccc(C(F)(F)F)cc3)cc2)CC1` [Compound 119] was run?
A: Its pIC50 is 5.33.
